Test results published in publication PMC6150735, “Molecular Docking-Based Design and Development of a Highly Selective Probe Substrate for UDP-glucuronosyltransferase 1A10” (Molecular Pharmaceutics, 2018).
Entries after “also recorded” stand apart in the source; their conditions may differ.

Experiments:
human UGTs = experiment: Recombinant human UGT screen: glucuronidation rates across human UGTs; type: biochemical; conditions: 10 μM aglycone; other UGTs at very low rates
Method: Recombinant human UGTs 1A1, 1A3, 1A6, 1A7, 1A8, 1A9, 1A10, 2A1, 2A2, 2A3, 2B4, 2B10, 2B7, and 2B17 were produced, as His-tagged proteins, in baculovirus-infected insect cells as previously described.[37]−[39] The relative expression level of each of these recombinant UGTs was evaluated by immunodetection, using monoclonal antibody against the His-tag, as described elsewhere.[40] A numeric value of 1.0 was given to the expression level of UGT1A8 and the relative expression level of each of the other UGTs was related to this value. Normalized activities were obtained by dividing the glucuronidation rate values by the relative expression level of the tested UGT. In addition, UGTs 1A4, 2B10, and 2B15 were purchased from Corning Life Sciences (New York) and are marked, in Figure 5, with a “C” to indicate that they are commercial enzymes. The expression levels of the UGTs in the commercial samples could not be determined, so their protein concentration was used to calculate the reaction rate.
(§1) The incubation mixtures for glucuronidation assays contained 100 mM Tris-HCl buffer pH 7.4, 2.5 mM MgCl2, 0.5 mM UDPGA, recombinant UGT, or microsomes as the enzyme source and 0–15 μM of the test aglycone substrate. When the incubation mixtures contained microsomes, alamethicin was used at a final concentration of 12.5 μg/mL, but it was not included in the recombinant enzyme assays.[43] In the first experiments three negative control samples were tested, namely (i) without the substrate 7-hydroxycoumarin derivative, (ii) without the cofactor UDPGA, or (iii) without the enzyme source. In subsequent experiments, the control samples lacked the enzyme source since it gave the highest fluorescence background. Preliminary experiments were done under different conditions than most of the later assays, namely in 2.5 mL of 100 mM phosphate buffer pH 7.4, containing 500 μg pig liver microsomes, 1.0 μM compound 6 and 0.5 mM UDPGA, at room temperature. Fluorescence spectra (excitation 200–420 nm; emission 400–600 nm) or fluorescence decrease at 390 nm excitation and 460 nm emission, were measured in these preliminary experiments, using a Shimadzu RF-5000 spectrophotofluorometer.
(§2) Most of the glucuronidation assays were carried out in 96 multiwell plate format, and incubations were carried out in 100 μL and at 37 °C, in the presence of Tris–HCl buffer pH 7.4, UDPGA, and the tested 7-hydroxycoumarin derivative, at the indicated concentrations. Fluorescence decline in the multiwell plate experiments was monitored every other minute, for 40 min, using an excitation filter at 405 nm and detection at 460 nm, in a Victor2 1420 Multilabel counter (PerkinElmer, Life Sciences, Turku, Finland). The fluorescence values were transformed into molarity using the aglycone substrates for making the respective standard curves. Slopes of the substrate concentration decrease per minute were calculated using linear regression analysis, in which the linear part of the kinetic assay indicated the glucuronidation rate. Enzyme catalyzed glucuronidation rate was calculated by subtracting the blank value from the full reaction value. The intra-assay variability of the kinetic assays was 6% when compound 6 was used as the aglycone substrate. Kinetic analyses were also performed in the same 96 multiwell plates format, with excitation filter at 405 nm and detection at 460 nm, using 6–8 different substrate concentrations per substrate and two different protein concentrations for both the wild-type and mutant UGT1A10. The higher concentrations, 13.5 mg/L for UGT1A10 and 12.0 mg/L for the UGT1A10 mutant, were used when the substrates were HFC, compounds 4 and 6, whereas the lower protein concentrations, 6.75 and 6.0 mg/L for UGT1A10 and the mutant, respectively, were used when the substrates were compounds 1, 2, 3, and 5.

[1] = Absorbance spectra of coumarin derivatives; type: physicochemical; conditions: 10 μM, 100 mM Tris–HCl pH 7.4, 10% dimethyl sulfoxide
Method: (§3) The absorbance spectra of 10 μM coumarin derivatives at 100 mM Tris–HCl pH 7.4 containing 10% dimethyl sulfoxide were measured using a Hitachi U-2000 Spectrophotometer (Tokyo, Japan). Excitation and emission fluorescence spectra of 0.1 μM coumarin derivatives in 100 mM Tris-HCl pH 7.4 were measured using a Shimadzu RF-5000 spectrophotofluorometer (Tokyo, Japan). The excitation spectra was from 200 to 420 at 460 nm emission and the emission spectra was from 400 to 600 at 390 nm excitation (data in Supplementary Table S1 and Figures S1 and S2). The effect of pH on fluorescence intensity was determined at 405 nm excitation and 460 nm emission, in the presence of 1.5% trichloroacetic acid, 100 mM phosphate buffers at pH 5, 6, 7, 8, and 9, or 1.6 M glycine–NaOH pH 10.4.

[2] = Excitation and emission fluorescence spectra of coumarin derivatives; type: physicochemical; design: dose or concentration left out as unconfirmed
Method: as §3, with “Excitation and emission fluorescence spectra of 0.1 μM coumarin derivatives in 100 mM Tris-HCl pH 7.4 were measured using a Shimadzu RF-5000 spectrophotofluorometer (Tokyo, Japan).” left out

[3] = Glucuronidation by human intestinal microsomes (HIM); type: in vitro ADME; conditions: human, pooled human intestinal microsomes (HIM), pH 7.4
Method: (§4) A commercial HLM pool (cat no:452210, BD Gentest, Bedford, MA) and human intestine microsomes (HIM) pool (lot. no 1110189, XenoTech, Kansas City, KS) were purchased. Pig liver samples were prepared from untreated female pigs that were used for practicing surgical procedures at the University of Kuopio (currently: University of Eastern Finland, Kuopio campus). Other animal liver microsomes were prepared as described previously.[41] The Ethics Committee for Animal Experiments, University of Kuopio, approved these experiments.
as §1, §2

[4] = system: human intestinal microsomes (HIM); experiment: as above; type: in vitro ADME
Method: as §4, §1, §2

[5] = system: human liver microsomes (HLM); experiment: Glucuronidation by human liver microsomes (HLM); type: in vitro ADME
Procedure, shortened: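 Pooled microsomes with 12.5 μg/mL alamethicin in 100 mM Tris-HCl pH 7.4, 2.5 mM MgCl2, 0.5 mM UDPGA and 0-15 μM 7-hydroxycoumarin substrate at 37 °C. Fluorescence decline (ex 405/em 460 nm) read every 2 min for 40 min; rate from linear slope via standard curve, no-enzyme blank subtracted.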

Amax [1]: 392 nm
ε abs [1]: 20 500 cmx1*Mx1
Fluorescence EMmax [2]: 494 nm
Fluorescence EXmax [2]: 396 nm
Km [3]: 12 µM
Effect of adding albumin on Km and Vmax ([4]; intestinal microsomes, albumin in incubation mixture): increased both Km and Vmax values
SMILES: O=c1oc2cc(O)ccc2cc1-n1cncn1 [Compound 6, 7-Hydroxy-3-(1H-1,2,4-triazol-1-yl)-2H-chromen-2-one]
Selectivity among human UGTs (human UGTs): selective for UGT1A10
Vmax ([4]; human intestinal microsomes): 3.5 (2.9–4.0) μmol/(min * g prot)
Glucuronidation by HLM (in words) ([5]; 10 μM aglycone): not glucuronidated by HLM at all, or only at very low rates; also recorded: very low or below the detection limit
Vmax ([5]; human hepatic microsomes): 4.0 (2.6–5.4) μmol/(min* g prot)
